The source of these data is patent publication US9567324B2, “Substituted nicotinamide derivatives as kinase inhibitors” (Allergan, Inc., priority 2013, dated 2017).

The IC50 is the midpoint of a concentration-inhibition curve.

Test [1] addresses PDGFRβ (purified cytoplasmic domain PDGFR-b protein) (Homo sapiens (Human), UniProt P09619). The experiment in a line: PDGFRβ Kinase Assay. In kind it is biochemical. Particulars: for IC50: 36 μM ATP, poly-Glu-Tyr (4:1) substrate, ELISA read-out, read-out: PDGFRβ Enzyme Assay (IC50 nM). The procedure:
Biochemical PDGFRβ kinase assays were performed in 96 well microtiter plates that were coated overnight with 75 μg of poly-Glu-Tyr (4:1) in 10 mM Phosphate Buffered Saline (PBS), pH 7.4. The coated plates were washed with 2 mls per well PBS+0.05% Tween-20 (PBS-T), blocked by incubation with PBS containing 1% BSA, then washed with 2 mls per well PBS-T prior to starting the reaction. Reactions were carried out in 100 μL reaction volumes containing 36 μM ATP in kinase buffer (50 mM Hepes buffer pH 7.4, 20 mM MgCl2, 0.1 mM MnCl2 and 0.2 mM Na3VO4). Test compounds were reconstituted in 100% DMSO and added to the reaction to give a final DMSO concentration of 5%. Reactions were initiated by the addition 20 ul per well of kinase buffer containing 200-300 ng purified cytoplasmic domain PDGFR-b protein (Millipore). Following a 60 minute incubation at 30° C., the reactions were washed 2 mls per well PBS-T. 100 μl of a monoclonal anti-phosphotyrosine antibody-peroxidase conjugate diluted 1:10,000 in PBS-T was added to the wells for 30 minutes. Following a 2 mls per well wash with PBS-Tween-20, 100 μl of O-Phenylenediamine Dihydrochloride in phosphate-citrate buffer, containing urea hydrogen peroxide, was added to the wells for 7-10 minutes as a colorimetric substrate for the peroxidase. The reaction was terminated by the addition of 100 μl of 2.5N H2SO4 to each well and read using a microplate ELISA reader set at 492 nm. IC50 values for compound inhibition were calculated directly from graphs of optical density (arbitrary units) versus compound concentration following subtraction of blank values.
For orientation: An ELISA detects its analyte on a solid surface through an enzyme-linked reagent.

The next test deals with PDGFRβ (Homo sapiens (Human), UniProt P09619). The experiment in a line: PDGFRβ Cellular Assay (FLIPR, PDGF-induced intracellular calcium in NHDF-Ad). It counts as cell-based. Particulars: PDGF-BB stimulation (30 ng/mL), Fluo-4 FLIPR. The procedure:
Automated FLIPR (Fluorometric Imaging Plate Reader) technology was used to screen for inhibitors of PDGF-induced increases in intracellular calcium levels in fluorescent dye loaded […] cells. NHDF-Ad (Normal Human Dermal Fibroblasts, Adult; Lonza) were seeded in 384-well fibronectin coated black-walled plates overnight @ 37° C./5% CO2. Cells were loaded with calcium indicator Fluo-4 for 45 minutes at 37° C. Cells were washed 2 times (E1×405, Biotek Instruments) to remove extracellular dye. For screening, cells were pre-incubated with test agents for 30 minutes, at a single concentration (10 uM) or at concentrations ranging from 0.0001 to 10.0 uM followed by PDGF-BB stimulation (30 ng/mL). Changes in fluorescence at 516 nm were measured simultaneously in all 384 wells using a cooled CCD camera. Data were generated by determining max-min fluorescence levels for unstimulated, stimulated, and drug treated samples. IC50 values for test compounds were calculated from % inhibition of PDGF-BB stimulated responses in the absence of inhibitor.

Sequence of PDGFRβ (P09619 33-1106): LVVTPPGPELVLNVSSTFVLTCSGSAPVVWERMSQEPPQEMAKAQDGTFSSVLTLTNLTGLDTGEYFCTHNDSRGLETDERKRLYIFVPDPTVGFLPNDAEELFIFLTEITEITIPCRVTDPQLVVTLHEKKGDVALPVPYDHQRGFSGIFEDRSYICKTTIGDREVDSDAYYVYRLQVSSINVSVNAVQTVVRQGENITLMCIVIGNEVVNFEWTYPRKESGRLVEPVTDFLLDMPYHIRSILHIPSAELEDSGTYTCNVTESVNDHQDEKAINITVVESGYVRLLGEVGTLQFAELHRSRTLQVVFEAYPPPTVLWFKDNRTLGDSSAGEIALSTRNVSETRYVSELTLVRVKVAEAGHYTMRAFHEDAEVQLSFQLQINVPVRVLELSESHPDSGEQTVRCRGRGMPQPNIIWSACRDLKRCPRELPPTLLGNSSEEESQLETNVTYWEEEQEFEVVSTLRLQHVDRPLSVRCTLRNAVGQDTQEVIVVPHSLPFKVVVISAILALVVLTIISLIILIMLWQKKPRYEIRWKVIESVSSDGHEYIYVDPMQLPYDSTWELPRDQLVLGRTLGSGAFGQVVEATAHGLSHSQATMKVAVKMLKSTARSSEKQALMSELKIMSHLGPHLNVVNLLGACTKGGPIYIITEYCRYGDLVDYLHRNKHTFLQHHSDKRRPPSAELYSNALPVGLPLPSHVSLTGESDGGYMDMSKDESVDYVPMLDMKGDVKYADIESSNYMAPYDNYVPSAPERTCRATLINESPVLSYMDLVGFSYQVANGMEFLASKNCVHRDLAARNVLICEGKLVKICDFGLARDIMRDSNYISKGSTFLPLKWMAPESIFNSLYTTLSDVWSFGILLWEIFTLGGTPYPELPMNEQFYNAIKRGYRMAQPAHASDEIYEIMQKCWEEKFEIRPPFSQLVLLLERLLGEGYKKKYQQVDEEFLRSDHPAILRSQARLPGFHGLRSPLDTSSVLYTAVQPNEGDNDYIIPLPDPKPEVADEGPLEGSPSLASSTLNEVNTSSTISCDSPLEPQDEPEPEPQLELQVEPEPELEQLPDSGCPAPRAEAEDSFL
Sequence of PDGFRβ (purified cytoplasmic domain PDGFR-b protein) (P09619 554-1106): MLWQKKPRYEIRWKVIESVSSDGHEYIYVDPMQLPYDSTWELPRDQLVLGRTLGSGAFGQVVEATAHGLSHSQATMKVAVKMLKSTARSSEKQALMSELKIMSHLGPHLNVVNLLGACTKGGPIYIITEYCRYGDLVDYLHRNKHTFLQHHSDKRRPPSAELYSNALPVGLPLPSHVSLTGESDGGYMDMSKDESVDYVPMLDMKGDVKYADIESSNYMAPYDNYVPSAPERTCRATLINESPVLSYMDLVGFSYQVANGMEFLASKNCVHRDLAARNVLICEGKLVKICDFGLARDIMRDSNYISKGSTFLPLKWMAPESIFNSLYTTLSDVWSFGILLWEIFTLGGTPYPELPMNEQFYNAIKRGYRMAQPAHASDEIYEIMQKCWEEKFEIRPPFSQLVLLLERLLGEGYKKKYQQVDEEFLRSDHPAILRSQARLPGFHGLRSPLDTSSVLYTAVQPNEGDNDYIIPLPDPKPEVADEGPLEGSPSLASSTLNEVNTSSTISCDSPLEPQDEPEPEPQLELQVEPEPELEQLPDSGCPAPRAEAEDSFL

As to `Cc1ccoc1C(=O)Nc1cccc(C#Cc2cncc(C(=O)N=S3(=O)CCN(C(N)=O)CC3)c2)c1` [Example 3, 1-({[5-({3-[(3-Methyl-2-furoyl)amino]phenyl}ethynyl)pyridin-3-yl]carbonyl}imino)-1λ^4,4-thiazinane-4-carboxamide 1-oxide], in test [1], the “activity/potency at the PDGFRβ receptor (in words)” value (“activity/potency” below) is “greatest potency”.

For `CCOC(=O)CNC(=O)N1CCS(=O)(=NC(=O)c2cncc(C#Cc3cccc(NC(=O)c4occc4C)c3)c2)CC1` [Example 11, Ethyl({[1-({[5-({3-[(3-methyl-2-furoyl)amino]phenyl}ethynyl)pyridin-3-yl]carbonyl}imino)-1-oxido-1λ^4,4-thiazinan-4-yl]carbonyl}amino)acetate], the “activity/potency” value in test [1] was “greatest potency”.

Turning to `Cc1ccoc1C(=O)Nc1cccc(C#Cc2cc(C(=O)N=S3(=O)CCN(C(=O)OC(C)(C)C)CC3)cnc2N)c1` [Example 13, tert-Butyl 1-({[6-amino-5-({3-[(3-methyl-2-furoyl)amino]phenyl}ethynyl)pyridin-3-yl]carbonyl}imino)-1λ^4,4-thiazinane-4-carboxylate 1-oxide], the “activity/potency” value in test [1] is “greatest potency”.

For `Cc1ccc(F)c(C(=O)Nc2cccc(C#Cc3cc(C(=O)N=S4(=O)CCN(C(=O)OC(C)(C)C)CC4)cnc3N)c2)c1` [Example 16, tert-butyl 1-({[6-Amino-5-({3-[(2-fluoro-5-methylbenzoyl)amino]phenyl}ethynyl)pyridin-3-yl]carbonyl}imino)-1λ^4,4-thiazinane-4-carboxylate 1-oxide], the “activity/potency” value in test [1] was “greatest potency”.

On to `Cc1ccc(F)c(C(=O)Nc2cccc(C#Cc3cc(C(=O)N=S4(=O)CCNCC4)cnc3N)c2)c1` [Example 17, 6-Amino-5-({3-[(2-fluoro-5-methylbenzoyl)amino]phenyl}ethynyl)-N-(1-oxido-1λ^4,4-thiazinan-1-ylidene)nicotinamide], for which, in test [1], the “activity/potency” value is on record as “greatest potency” and the IC50 was 7 nM.

Consider `Cc1ccc(F)c(C(=O)Nc2cccc(C#Cc3cc(C(=O)N=S4(=O)CCN(C(N)=O)CC4)cnc3N)c2)c1` [Example 18, 1-({[6-Amino-5-({3-[(2-fluoro-5-methylbenzoyl)amino]phenyl}ethynyl)pyridin-3-yl]carbonyl}imino)-1λ^4,4-thiazinane-4-carboxamide 1-oxide], for which the IC50 in test [1] was 7 nM.

With `Cc1ccoc1C(=O)Nc1cccc(C#Cc2cncc(C(=O)N=S3(=O)CCOCC3)c2)c1` [Example 19, 5-({3-[(3-methyl-2-furoyl)amino]phenyl}ethynyl)-N-(4-oxido-1,4λ^4-oxathian-4-ylidene)nicotinamide], the IC50 in test [1] was 23 nM; at PDGFRβ, 19 nM.

As to `Cc1ccoc1C(=O)Nc1cccc(C#Cc2cc(C(=O)N=S3(=O)CCOCC3)cnc2N)c1` [Example 20, 6-amino-5-({3-[(3-methyl-2-furoyl)amino]phenyl}ethynyl)-N-(4-oxido-1,4λ^4-oxathian-4-ylidene)nicotinamide], the IC50 worked out at 51 nM in test [1] and 31 nM on PDGFRβ.

In the case of `Cc1ccc(F)c(C(=O)Nc2cccc(C#Cc3cc(C(=O)N=S4(=O)CCOCC4)cnc3N)c2)c1` [Example 21, 6-amino-5-({3-[(2-fluoro-5-methylbenzoyl)amino]phenyl}ethynyl)-N-(4-oxido-1,4λ^4-oxathian-4-ylidene)nicotinamide], the IC50 in test [1] stood at 24 nM.

Turning to `Cc1ccc(F)c(NC(=O)c2cccc(C#Cc3cc(C(=O)N=S4(=O)CCOCC4)cnc3N)c2)c1` [Example 22, 6-amino-5-[(3-{[(2-fluoro-5-methylphenyl)amino]carbonyl}phenyl)ethynyl]-N-(4-oxido-1,4λ^4-oxathian-4-ylidene)nicotinamide], at PDGFRβ, the IC50 came out at 17 nM.

As to `Nc1ncc(C(=O)N=S2(=O)CCOCC2)cc1C#Cc1cccc(C(=O)Nc2ccc(Cl)c(C(F)(F)F)c2)c1` [Example 23, 6-amino-5-{[3-({[4-chloro-3-(trifluoromethyl)phenyl]amino}carbonyl)phenyl]ethynyl}-N-(4-oxido-1,4λ^4-oxathian-4-ylidene)nicotinamide], the IC50 in test [1] worked out at 13 nM.

With `CC(C)(C)c1cc(NC(=O)c2cccc(C#Cc3cc(C(=O)N=S4(=O)CCOCC4)cnc3N)c2)no1` [Example 24, 6-amino-5-[(3-{[(5-tert-butylisoxazol-3-yl)amino]carbonyl}phenyl)ethynyl]-N-(4-oxido-1,4λ^4-oxathian-4-ylidene)nicotinamide], in test [1], the “activity/potency” value is recorded as “best activity” and the IC50 worked out at 10 nM.

For the compound `COc1cccc(NC(=O)c2cccc(C#Cc3cc(C(=O)N=S4(=O)CCOCC4)cnc3N)c2)c1` [Example 25, 6-amino-5-[(3-{[(3-methoxyphenyl)amino]carbonyl}phenyl)ethynyl]-N-(4-oxido-1,4λ^4-oxathian-4-ylidene)nicotinamide], in test [1], the IC50 is 19 nM.
